Data on 40 compounds can be found in ChEMBL document CHEMBL2311253, “Isatin replacements applied to the highly selective, muscarinic M1 PAM ML137: continued optimization of an MLPCN probe molecule” (Bioorg Med Chem Lett, 2013).

Calls of active or inactive are those of the source. No cut-off for these calls is given here.

Common to all, as to assay type: functional
Assay [1] has as its target T1, Muscarinic acetylcholine receptor M1 (Homo sapiens, UniProt P11229).
T1 sequence (P11229 whole entry): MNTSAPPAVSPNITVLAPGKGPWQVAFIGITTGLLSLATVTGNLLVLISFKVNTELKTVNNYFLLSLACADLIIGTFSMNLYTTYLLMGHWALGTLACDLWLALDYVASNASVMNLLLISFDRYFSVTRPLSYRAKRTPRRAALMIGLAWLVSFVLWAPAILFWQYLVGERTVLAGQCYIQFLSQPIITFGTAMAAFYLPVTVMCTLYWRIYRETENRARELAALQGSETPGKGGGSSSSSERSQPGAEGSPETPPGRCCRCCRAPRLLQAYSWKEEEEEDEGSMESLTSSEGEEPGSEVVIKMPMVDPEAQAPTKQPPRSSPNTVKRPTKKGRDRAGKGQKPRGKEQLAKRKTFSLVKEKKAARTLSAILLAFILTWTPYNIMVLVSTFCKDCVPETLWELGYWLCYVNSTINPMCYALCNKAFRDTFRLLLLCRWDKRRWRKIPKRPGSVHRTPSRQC
The assay can be described thus: Positive allosteric modulator activity at human muscarinic M1 receptor by calcium mobilization assay.

The target of assay [2] is T2, Muscarinic acetylcholine receptor M1 (Homo sapiens) (UniProt P11229).
T2 sequence (whole entry): T1 sequence (P11229 whole entry)
The assay can be described thus: Positive allosteric modulator activity at human muscarinic M1 receptor assessed as fold shift of acetylcholine concentration curve to the left at 30 uM by calcium mobilization assay relative to untreated acetylcholine control. In general terms: Calcium assays in cells follow changes in intracellular calcium, usually with a dye or a luminescent sensor.

Assay [3] concerns the target T2, Muscarinic acetylcholine receptor M1 (Homo sapiens). Kind of assay: Positive allosteric modulator activity at human muscarinic M1 receptor relative to acetylcholine by calcium mobilization assay. On the set-up: concentration or dose not given beside the values.
Assay [4] has the same target. Kind of assay: Positive allosteric modulator activity at human muscarinic M1 receptor up to 30 uM by calcium mobilization assay.
The target of assay [5] is T3, Muscarinic acetylcholine receptor M4 (Homo sapiens) (UniProt P08173).
T3 sequence (whole entry): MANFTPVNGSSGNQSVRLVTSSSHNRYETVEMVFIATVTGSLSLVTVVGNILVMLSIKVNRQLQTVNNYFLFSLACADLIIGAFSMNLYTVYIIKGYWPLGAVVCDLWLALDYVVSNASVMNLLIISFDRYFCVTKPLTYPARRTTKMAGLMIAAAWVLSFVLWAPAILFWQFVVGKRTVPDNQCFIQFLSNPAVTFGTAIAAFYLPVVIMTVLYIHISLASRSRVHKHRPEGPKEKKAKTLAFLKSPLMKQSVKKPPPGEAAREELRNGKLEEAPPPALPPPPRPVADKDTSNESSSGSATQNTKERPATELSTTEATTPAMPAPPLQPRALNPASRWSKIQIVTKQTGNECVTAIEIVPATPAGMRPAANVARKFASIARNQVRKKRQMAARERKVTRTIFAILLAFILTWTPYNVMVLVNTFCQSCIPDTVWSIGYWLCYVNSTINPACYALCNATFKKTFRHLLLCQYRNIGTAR
Kind of assay: Positive allosteric modulator activity at human muscarinic M4 receptor by calcium mobilization assay.

As for `Cn1cc(-c2ccc(CN3C(=O)C(O)(C(F)(F)F)c4ccccc43)cc2)cn1` (racemic), in assay [1], the EC50 came to 4 µM. The fold change (FC) in assay [2] was found to be 15.2. Moreover, in assay [3], the Activity came out at 66%.
As for `Cn1cc(-c2ccc(Cn3c4ccccc4c4cccnc43)c(F)c2)cn1`, the result in assay [4] was inactive.
As for `Cn1cc(-c2ccc(Cn3c4ccccc4c4nccnc43)c(F)c2)cn1`, in assay [4], the result was inactive.
Take `Cn1cc(-c2ccc(CN3C(=O)C(O)(C(F)(F)F)c4ccccc43)c(F)c2)cn1` (stereo in doubt; 23h): the fold change (FC) in assay [2] is 12. For the same compound, the Activity in assay [3] worked out at 57%.
As for `Cn1cc(-c2ccc(CN3C(=O)C(N)c4ccccc43)c(F)c2)cn1` (racemic), the EC50 in assay [1] was found to be 1.3 µM. For the same compound, in assay [3], the Activity came to 50%.
Take `Cn1cc(-c2ccc(CN3C(=O)C(O)(C(F)(F)F)c4ccccc43)c(F)c2)cn1` (racemic): in assay [2], the fold change (FC) came to 7.4. The Activity in assay [3] turned out to be 51%.
Take `Cn1cc(-c2ccc(CN3C(=O)C(O)(C(F)(F)F)c4ccccc43)c(Cl)c2)cn1` (racemic): the EC50 in assay [1] is greater than 10 µM. Also, the Activity in assay [3] was 29%.
For `Cn1cc(-c2ccc(CN3C(=O)OCc4ccccc43)c(F)c2)cn1` the same measures were greater than 10 µM and 62%.
For `Cn1cc(-c2ccc(CN3C(=O)CS(=O)(=O)c4ccccc43)c(F)c2)cn1` the same measures were greater than 10 µM and 36%.
As for `Cn1cc(-c2ccc(CN3C(=O)C(=O)c4ccccc43)c(F)c2)cn1`, the EC50 in assay [1] came to 0.6 µM. Moreover, the fold change (FC) in assay [2] was determined as 2.7. Moreover, the Activity in assay [3] worked out at 45%.
As for `CCn1cc(-c2ccc(CN3C(=O)C(O)(C(F)(F)F)c4ccccc43)c(F)c2)cn1` (racemic), in assay [1], the EC50 is 3.3 µM. Moreover, the Activity in assay [3] was determined as 37%.
For `Cn1cc(-c2ccc(CN3C(=O)C(C)(N)c4ccccc43)c(F)c2)cn1` (racemic), the EC50 in assay [1] is greater than 10 µM. The Activity in assay [3] was 28%.
On to `Cn1cc(-c2ccc(CN3C(=O)Cc4ccccc43)c(F)c2)cn1`, for which, in assay [1], the EC50 stood at 2.4 µM. Moreover, the fold change (FC) in assay [2] is 27.2. Further, the Activity in assay [3] is 64%. Moreover, the result in assay [5] was Active.
For `COC1(C(F)(F)F)C(=O)N(Cc2ccc(-c3cnn(C)c3)cc2F)c2ccccc21` (racemic), in assay [4], the outcome was inactive.
In the case of `Cn1cc(-c2ccc(CN3C(=O)C(O)(C(F)(F)F)c4ccccc43)c(F)c2)cn1` (centres undefined), the result in assay [4] was inactive.
In the case of `CCCn1cc(-c2ccc(CN3C(=O)C(O)(C(F)(F)F)c4ccccc43)c(F)c2)cn1` (racemic), in assay [4], the outcome was inactive.
Turning to `Cn1cc(-c2ccc(CN3CCSc4ccccc43)c(F)c2)cn1`, in assay [4], the result was inactive.
On to `Cn1cc(-c2ccc(CN3C(=O)CCc4ccccc43)c(F)c2)cn1`, for which the EC50 in assay [1] was determined as 5.6 µM. Also, in assay [3], the Activity was 44%.
Turning to `COc1nc2ccccc2n1Cc1ccc(-c2cnn(C)c2)cc1F`, the result in assay [4] was inactive.
As for `Cn1cc(-c2ccc(Cn3c(=O)ccc4ccccc43)c(F)c2)cn1`, the EC50 in assay [1] was greater than 10 µM. Also, the Activity in assay [3] turned out to be 51%.
`Cn1cc(-c2ccc(CN3CC(c4ccccc4)CC3=O)c(F)c2)cn1` (centres undefined): in assay [4], the result was inactive.
In the case of `Cn1cc(-c2ccc(CN3C(=O)C(C)(O)c4ccccc43)c(F)c2)cn1` (racemic), the EC50 in assay [1] was greater than 10 µM. In addition, in assay [2], the fold change (FC) worked out at 6.5. Further, the Activity in assay [3] was found to be 49%.
On to `O=C1N(Cc2ccc(-c3cn[nH]c3)cc2F)c2ccccc2C1(O)C(F)(F)F` (racemic), for which, in assay [4], the result was inactive.
As for `Cn1cc(-c2ccc(CN3C(=O)NCc4ccccc43)c(F)c2)cn1`, the EC50 in assay [1] was greater than 10 µM. Also, the Activity in assay [3] stood at 53%.
With `Cn1cc(-c2ccc(CN3C(=O)C(F)(F)c4ccccc43)c(F)c2)cn1`, in assay [4], the outcome was inactive.
`Cn1cc(-c2ccc(CN3C(=O)CSc4ccccc43)c(F)c2)cn1`: the EC50 in assay [1] was found to be 3.2 µM. Also, the Activity in assay [3] is 30%.
Regarding `CC(C)n1cc(-c2ccc(CN3C(=O)C(O)(C(F)(F)F)c4ccccc43)c(F)c2)cn1` (racemic), in assay [4], the result was inactive.
Take `CC(=O)N(Cc1ccc(-c2cnn(C)c2)cc1F)c1ccccc1`: the result in assay [4] was inactive.
Take `Cn1cc(-c2ccc(CN3C(=O)C[S+]([O-])c4ccccc43)c(F)c2)cn1` (centres undefined): in assay [1], the EC50 was greater than 10 µM. Moreover, in assay [3], the Activity was determined as 46%.
`Cn1cc(-c2ccc(Cn3c(=O)[nH]c4ccccc43)c(F)c2)cn1`: in assay [4], the outcome was inactive.
Consider `Cn1cc(-c2ccc(CN3C(=O)C(F)(C(F)(F)F)c4ccccc43)c(F)c2)cn1` (racemic), for which the EC50 in assay [1] is greater than 10 µM. For the same compound, the Activity in assay [3] turned out to be 25%.
For the compound `Cn1cc(-c2ccc(CN3C(=O)CCCc4ccccc43)c(F)c2)cn1`, the result in assay [4] was inactive.
Turning to `CN(C)C1(C)C(=O)N(Cc2ccc(-c3cnn(C)c3)cc2)c2ccccc21` (racemic), the EC50 in assay [1] was greater than 10 µM. In addition, the Activity in assay [3] is 48%.
`Cn1cc(-c2ccc(CN3CCc4ccccc43)c(F)c2)cn1`: in assay [4], the outcome was inactive.
Take `Cn1cc(-c2ccc(CN3C(=O)COc4ccccc43)c(F)c2)cn1`: the EC50 in assay [1] stood at 5.2 µM. The Activity in assay [3] was determined as 52%.
Take `Cn1cc(-c2ccc(CN3C(=O)c4cccc5cccc3c45)c(F)c2)cn1`: the outcome in assay [4] was inactive.
`Cn1cc(-c2ccc(CN3C(=O)C(O)(CF)c4ccccc43)c(F)c2)cn1` (racemic): the EC50 in assay [1] was greater than 10 µM. Also, the fold change (FC) in assay [2] came to 8. For the same compound, the Activity in assay [3] amounted to 59%.
`Cn1cc(-c2ccc(CN3c4ccccc4CS3(=O)=O)c(F)c2)cn1`: the EC50 in assay [1] is greater than 10 µM. Besides, in assay [3], the Activity was found to be 41%.
Take `Cn1cc(-c2ccc(Cn3ccccc3=O)c(F)c2)cn1`: the outcome in assay [4] was inactive.
For `CC1C(=O)N(Cc2ccc(-c3cnn(C)c3)cc2F)c2ccccc21` (racemic), in assay [1], the EC50 is greater than 10 µM. Besides, the Activity in assay [3] came out at 53%.

The term EC50 denotes the concentration giving half of the maximal effect.
